# Experimental data from patent US20160045496A1, “USE OF (RS)-S-CYCLOPROPYL-S-(4--5-(TRIFLUOROMETHYL)PYRIMIDIN-2-YL]AMINO}PHENYL)SULFOXIMIDE FOR TREATMENT OF SPECIFIC TUMOURS” (BAYER PHARMA AKTIENGESELLSCHAFT, priority 2013, published 2016).
# Columns and labels:
# Assay type in all cases: cell-based
# CAL-33 cells = assay: Proliferation assay, adherent cells, crystal violet; conditions: Homo sapiens, 96 h, CAL-33 (DSMZ ACC-447), squamous-cell carcinoma, head and nape, 4 days incubation
# Protocol: (§1) Human tumour cells were originally obtained from the American Type Culture Collection (ATCC), the Deutsche Sammlung von Mikroorganismen and Zellkulturen (DSMZ) (German Collection of Microorganisms and Cell Cultures) in Braunschweig, CLS Cell Lines Service GmbH in Eppelheim, the Institut Gustave Roussy (Villejuif, France), or the Charité in Berlin (table 1). Adherently growing cells (A-673, RD, Rh30, Rh41, SK-N-AS, NCI-H2286, HCC-366, FaDu, CAL-33, RPMI-2650, SiHa) were plated out in a density of 3000-4000 cells/measurement point, depending on the rate of growth of the cell line, in a 96-well multititre plate in 200 μl of growth medium (DMEM/HAMS F12, 2 mM L-glutamine, 10% foetal calf serum). After 24 hours, the cells of one plate (zero plate) were dyed with crystal violet (see below), whereas the medium of the other plates was replaced with fresh culture medium (200 μl) to which the test substances were added in various concentrations (0 μM, and also in the range of 0.001-3 μM; the final concentration of the solvent dimethyl sulphoxide was 0.5%). The cells were incubated for 4 days in the presence of the test substances. Cell proliferation was determined by dyeing the cells with crystal violet: the cells were fixed at room temperature for 15 min by adding 20 μl/measurement point of an 11% strength glutaraldehyde solution. After washing the fixed cells three times with water, the plates were dried at room temperature. The cells were dyed by adding 100 μl/measurement point of a 0.1% strength crystal violet solution (pH adjusted to pH 3 by adding acetic acid). After washing the dyed cells three times with water, the plates were dried at room temperature. The dye was dissolved by adding 100 μl/measurement point of a 10% strength acetic acid solution. Absorbance was determined photometrically at a wavelength of 595 nm. The percentage change in cell growth was calculated by normalizing the measured values to the absorbance values of the zero plate (=0%) and the absorbance of the untreated (0 μM) cells (=100%). The measured data were normalized to 0% inhibition (cell proliferation without inhibitor) and 100% inhibition (zero plate). The IC50 values were determined by means of a four parameter fit.
# (§2) The substances were investigated in the following cell lines, which, by way of example, represent the specified indications (table 1).
# NCI-H2286 cells = assay: as above; conditions: Homo sapiens, 96 h, NCI-H2286 (ATCC CRL-5938), squamous-cell carcinoma, lung, 4 days incubation
# Protocol: as §1, §2
# HCC-366 cells = assay: as above; conditions: Homo sapiens, HCC366, 96 h, HCC-366 (DSMZ ACC-492), squamous-cell carcinoma, lung, 4 days incubation
# Protocol: as §1, §2
# SiHa cells = assay: as above; conditions: Homo sapiens, 96 h, SiHa (ATCC HTB-35), squamous-cell carcinoma, cervix, 4 days incubation
# Protocol: as §1, §2
# Rh30 cells = assay: as above; conditions: Homo sapiens, 96 h, Rh30 (DSMZ ACC-489), rhabdomyosarcoma, 4 days incubation
# Protocol: as §1, §2
# RPMI-2650 cells = assay: as above; conditions: Homo sapiens, 96 h, RPMI-2650 (DSMZ ACC-287), squamous-cell carcinoma, head and nape, 4 days incubation
# Protocol: as §1, §2
# SK-N-AS cells = assay: as above; conditions: Homo sapiens, 96 h, SK-N-AS (ATCC CRL-2137), neuroblastoma, 4 days incubation
# Protocol: as §1, §2
# RD cells = assay: as above; conditions: Homo sapiens, 96 h, RD (CLS-300401), rhabdomyosarcoma, 4 days incubation
# Protocol: as §1, §2
# A-673 cells = assay: as above; conditions: Homo sapiens, A673, 96 h, A-673 (ATCC CRL-1598), rhabdomyosarcoma, 4 days incubation
# Protocol: as §1, §2
# FaDu cells = assay: as above; conditions: Homo sapiens, 96 h, FaDu (ATCC HTB-43), squamous-cell carcinoma, head and nape, 4 days incubation
# Protocol: as §1, §2
# Rh41 cells = assay: as above; conditions: Homo sapiens, 96 h, Rh41 (DSMZ ACC-592), rhabdomyosarcoma, 4 days incubation
# Protocol: as §1, §2
# Jeko-1 cells [1] = assay: Proliferation assay, suspension cells, Cell Titer-Glo; conditions: Homo sapiens, 96 h; Jeko-1 (DSMZ ACC-553), mantle cell lymphoma; 4 days incubation; CTG
# Protocol: (§3) Cells growing in suspension (HBL-1, TMD-8, GRANTA-519, Jeko-1) were plated out in a cell density of 2000-4000 cells/measurement point, depending on the rate of growth of the cell line, in a black-walled, clear-bottom 96-well multititre plate in 100 μl of growth medium (DMEM/HAMS F12, 2 mM L-glutamine, 10% foetal calf serum). After 24 hours, cell density was determined in one plate (zero plate) by adding 60 μl/measurement point of CTG solution (Promega Cell Titer-Glo solution (catalogue numbers G755B and G756B)), subsequent incubation for 2 min followed by 10 min shaking (in the dark) and measurement of luminescence (VICTOR V, Perkin Elmer). For the test plates, the test substances were prepared in various concentrations (0 μM, and also in the range of 0.001-3 μM; the final concentration of the solvent dimethyl sulphoxide was 0.5%) as 3× concentrated solutions in fresh growth medium. Aliquots of 50 μl each were added to the cell suspensions and the cells were incubated for 4 days in the presence of the test substances. Subsequently, cell density was determined using CTG solution as described above and IC50 values were calculated by means of a four parameter fit.
# as §2
# HBL-1 cells = assay: as above; conditions: Homo sapiens, HBL1, 96 h; HBL-1 (Charité, Berlin), diffuse large B-cell lymphoma; 4 days incubation; CTG
# Protocol: as §3, §2
# TMD-8 cells = assay: as above; conditions: Homo sapiens, TMD8, 96 h; TMD-8 (Charité, Berlin), diffuse large B-cell lymphoma; 4 days incubation; CTG
# Protocol: as §3, §2
# GRANTA-519 cells = assay: as above; conditions: Homo sapiens, 96 h; GRANTA-519 (DSMZ ACC-342), mantle cell lymphoma; 4 days incubation; CTG
# Protocol: as §3, §2
# Jeko-1 cells [2] = assay: Cytotoxic action after 24 hours, WST-1 viability; conditions: Homo sapiens, Jeko-1 (Institut Gustave Roussy), mantle cell lymphoma, after 24 hours of incubation
# Protocol: (§4) The cytotoxic action of BAY 1000394 on Jeko-1 and UPN-1 cells was also determined after 24 hours of incubation with the substance. To this end, 50 000 cells per measurement point were plated out in 96-well plates and incubated with BAY 1000394 in various concentrations in the range of 0.001 to 1.0 μM. After 24 hours, the viability of the cells was determined in accordance with the WST-1 method (Roche Diagnostics, catalogue number 11644807001).
# as §2
# UPN-1 cells = assay: Cytotoxic action after 24 hours, WST-1 viability; conditions: Homo sapiens, UPN1, UPN-1 (Institut Gustave Roussy), mantle cell lymphoma, after 24 hours of incubation
# Protocol: as §4, §2
smiles,measurement,setting,value
"C[C@@H](O)[C@@H](C)Oc1nc(Nc2ccc([S@](=N)(=O)C3CC3)cc2)ncc1C(F)(F)F [BAY 1000394, (R)-S-cyclopropyl-S-(4-{[4-{[(1R, 2R)-2-hydroxy-1-methylpropyl]oxy}-5-(trifluoromethyl)pyrimidin-2-yl]amino}phenyl)sulphoximide]",IC50,CAL-33 cells,0.019 µM
same,IC50,NCI-H2286 cells,0.007 µM
same,IC50,HCC-366 cells,0.02 µM
same,IC50,SiHa cells,0.01 µM
same,IC50,Rh30 cells,0.023 µM
same,IC50,RPMI-2650 cells,0.013 µM
same,IC50,SK-N-AS cells,0.022 µM
same,IC50,RD cells,0.026 µM
same,IC50,A-673 cells,0.0098 µM
same,IC50,FaDu cells,0.046 µM
same,IC50,Rh41 cells,0.017 µM
same,IC50,Jeko-1 cells [1],0.02 µM
same,IC50,HBL-1 cells,0.024 µM
same,IC50,TMD-8 cells,0.035 µM
same,IC50,GRANTA-519 cells,0.044 µM
same,IC50,Jeko-1 cells [2],0.031 µM
same,IC50,UPN-1 cells,0.0047 µM
